Data: patent US10238623B2, “C14-hydroxyl esterified amino acid derivative of triptolide, and preparation method and use thereof” (HANGZHOU WEBEN PHARMACEUTICALS INC, priority 2015, dated 2019)
Values joined by “and” are separate entries in the source; they are usually repeats but may differ in a detail not shown here. Equal entries are not always repeated.

How the values were obtained:
[1] = test system: human acute myelogenous leukemia KG-1a cells; test: KG-1a subcutaneous xenograft in NOD/SCID mice; assay type: in vivo; conditions: for growth of KG-1a in mice in vivo (in words): KG-1a xenograft, intragastric 2 times a day, dose-dependent effect; for Tumor volume: KG-1a
Experimental: (§1) 7-week old female NOD/SCID mice were taken and inoculated subcutaneously with 1×10^7 cells (0.2 ml) per mouse in axilla, with human acute myelogenous leukemia KG-1a cells on the left and human acute monocytic leukemia THP-1 cells on the right. When tumors grew to a tumor size of around 0.5 cm, the mice were randomized into groups with 3 mice each. An equivalent amount of PBS was used for the control group, and the 14-D-Valine-TPL group was divided into two groups with 0.2 mg/kg body weight and 0.4 mg/kg body weight: intragastric administration 2 times a day (one at 8 a.m. and one at 4 p.m.) for consecutive 14 days of treatment. An observation was made for total 30 days, during which the conditions of the mice such as tumor size, weight, activity, diet, and the like were measured. At the end of the experiment, the mice were sacrificed, tumor tissues were taken and the tumors were weighed, and major organs and tissues of the mice such as liver, spleen, heart, lung, large intestine, small intestine, and the like were examined.
as §1, with “the left.” for “the left and human acute monocytic leukemia THP-1 cells on the right.”, “around 50-100 mm^3,” for “around 0.5 cm,”, “the TPL-LLV” for “the 14-D-Valine-TPL”, “with 0.23” for “with 0.2”, “and 0.46” for “and 0.4”, “intragastric administration,” for “intragastric administration”
as §1, with “the left.” for “the left and human acute monocytic leukemia THP-1 cells on the right.”, “around 50-100 mm^3,” for “around 0.5 cm,”, “the TPL-DLV” for “the 14-D-Valine-TPL”, “with 0.23” for “with 0.2”, “and 0.46” for “and 0.4”, “intragastric administration,” for “intragastric administration”
as §1, with “the left.” for “the left and human acute monocytic leukemia THP-1 cells on the right.”, “around 50-100 mm^3,” for “around 0.5 cm,”, “the TPL-DLV” for “the 14-D-Valine-TPL”, “with 0.32” for “with 0.2”, “and 0.64” for “and 0.4”, “intragastric administration,” for “intragastric administration”

[2] = Body weight and organ examination of tumour-bearing mice; assay type: in vivo, NOD/SCID mice; conditions: 14 days, individual mice
Experimental: as §1
as §1, with “the left.” for “the left and human acute monocytic leukemia THP-1 cells on the right.”, “around 50-100 mm^3,” for “around 0.5 cm,”, “the TPL-LLV” for “the 14-D-Valine-TPL”, “with 0.23” for “with 0.2”, “and 0.46” for “and 0.4”, “intragastric administration,” for “intragastric administration”
as §1, with “the left.” for “the left and human acute monocytic leukemia THP-1 cells on the right.”, “around 50-100 mm^3,” for “around 0.5 cm,”, “the TPL-DLV” for “the 14-D-Valine-TPL”, “with 0.23” for “with 0.2”, “and 0.46” for “and 0.4”, “intragastric administration,” for “intragastric administration”
7-week old female NOD/SCID mice were taken and inoculated subcutaneously with 1×10^7 cells (0.2 ml) per mouse in axilla, with human acute myelogenous leukemia KG-1a cells on the left. When tumors grew to a tumor size of around 50-100 mm^3, the mice were randomized into groups with 3 mice each. An equivalent amount of PBS was used for the control group, and the TPL-DLV group was divided into two groups with 0.32 mg/kg body weight and 0.64 mg/kg body weight: intragastric administration, 2 times a day (one at 8 a.m. and one at 4 p.m.) for consecutive 14 days of treatment. An observation was made for total 30 days, during which the conditions of the mice such as tumor size, weight, activity, diet, and the like were measured. At the end of the experiment, the mice were sacrificed, tumor tissues were taken and the tumors were weighed, and major organs and tissues of the mice such as liver, spleen, heart, lung, large intestine, small intestine, and the like were examined. […]

[3] = test system: KG-1; test: MTT growth inhibition, KG-1 cells, 72 h; assay type: cell-based; conditions: Homo sapiens, KG-1, MTT
Experimental: (§2) 5000 well-grown leukemia cells were taken and seeded into wells of a 96-well cell culture plate. The medium was 1640 cell medium containing 10% fetal bovine serum. 14-D-Valine-TPL with different concentrations was added, and after being uniformly mixed, the plate was placed in a carbon dioxide (5% CO2) cell incubator, and incubated at 37° C. for 72 hours. The concentration of live cells was then determined using the MTT assay. In this experiment, the cell viability in the control group (without the compound treatment) was set to be 100%, and the cell viability (%) after the action of the compound and the half maximal growth inhibitory concentration of leukemia cells at 72 hours (IC50 value at 72 hours) were calculated.

[4] = test system: THP-1; test: MTT growth inhibition, THP-1 cells, 72 h; assay type: cell-based; conditions: Homo sapiens, THP-1, MTT
Experimental: as §2

[5] = test system: human chronic myelogenous leukemia K562/ADR cells; test: K562/ADR subcutaneous xenograft in NOD/SCID mice; assay type: in vivo; conditions: for growth of K562/ADR cells in mice in vivo (in words): K562/ADR xenograft, intragastric 2 times a day, dose-dependent effect; for Tumor volume: K562/ADR
Experimental: (§3) 7-week old female NOD/SCID mice were taken and inoculated subcutaneously with 1×10^7 cells (0.2 ml) per mouse in axilla, with human K562/ADR cells on the left. When tumors grew to a tumor size of around 50-100 mm^3, the mice were randomized into groups with 3 mice each. An equivalent amount of PBS was used for the control group, and the TPL-DDV group was divided into two groups with 0.23 mg/kg body weight and 0.46 mg/kg body weight: intragastric administration, 2 times a day (one at 8 a.m. and one at 4 p.m.) for consecutive 14 days of treatment. An observation was made for total 30 days, during which the conditions of the mice such as tumor size, weight, activity, diet, and the like were measured. At the end of the experiment, the mice were sacrificed, tumor tissues were taken and the tumors were weighed, and major organs and tissues of the mice such as liver, spleen, heart, lung, large intestine, small intestine, and the like were examined.
as §3, with “TPL-LV” for “TPL-DDV”, “0.2” for “0.23”, “0.4” for “0.46”

[6] = test system: KG-1a; test: MTT growth inhibition, KG-1a cells, 72 h; assay type: cell-based; conditions: Homo sapiens
Experimental: as §2

[7] = test system: pancreatic cancer; conditions: cited from earlier work

CC(C)[C@]12O[C@H]1[C@@H]1O[C@]13[C@]1(O[C@H]1C[C@H]1C4=C(CC[C@@]13C)C(=O)OC4)[C@@H]2OC(=O)[C@H](Cc1ccc(O)cc1)NC(=O)[C@@H](N)Cc1ccccc1 [14-L-Phenylalanyl-L-tyrosine-TPL, 14-Levo-Phenylalanyl-Levo-tyrosine-Triptolide]
growth of KG-1a in mice in vivo (in words) ([1]; 14 days): significantly inhibit the growth | Tumor volume ([1]; 0.64 mg/kg, Overall): 0 mm^3 | Tumor volume ([1]; trifluoroacetate 0.32 mg/kg intragastric 2 times a day, 14 days, individual mice, listed as LPT): 168.07 mm^3 and 93.12 mm^3 and 131.17 mm^3 | Tumor volume ([1]; trifluoroacetate 0.64 mg/kg intragastric 2 times a day, 14 days, individual mice): 0 mm^3 | Body weight ([2]; KG-1a-bearing mice, 0.32 mg/kg intragastric 2 times a day, listed as LPT, 0.32 mg/kg): 20 g and 20.4 g and 21.4 g | Body weight ([2]; KG-1a-bearing mice, 0.64 mg/kg intragastric 2 times a day, listed as LPT, 0.64 mg/kg): 19.4 g and 16.1 g and 17.4 g

CC(C)[C@H](N)C(=O)N[C@@H](C(=O)O[C@@H]1[C@@]2(C(C)C)O[C@H]2[C@@H]2O[C@]23[C@]12O[C@H]2C[C@H]1C2=C(CC[C@@]13C)C(=O)OC2)C(C)C [14-L-Valine-D-Valine-TPL, 14-Levo-Valine-Dextro-Valine-Triptolide]
growth of KG-1a in mice in vivo (in words) ([1]; 14 days): significantly inhibit the growth | Tumor volume ([1]; trifluoroacetate 0.23 mg/kg intragastric 2 times a day, 14 days, individual mice, listed as DLV): 562.66 mm^3 and 505.81 mm^3 and 1038.41 mm^3 | Tumor volume ([1]; trifluoroacetate 0.46 mg/kg intragastric 2 times a day, 14 days, individual mice, listed as DLV): 90.96 mm^3 and 265.32 mm^3 and 50.35 mm^3 | Body weight ([2]; KG-1a-bearing mice, 0.23 mg/kg intragastric 2 times a day, listed as DLV, 0.23 mg/kg): 19.5 g and 17.8 g and 19.6 g | Body weight ([2]; KG-1a-bearing mice, 0.46 mg/kg intragastric 2 times a day, listed as DLV, 0.46 mg/kg): 19.6 g and 18.5 g and 18.8 g

CC(C)[C@H](N)C(=O)O[C@@H]1[C@@]2(C(C)C)O[C@H]2[C@@H]2O[C@]23[C@]12O[C@H]2C[C@H]1C2=C(CC[C@@]13C)C(=O)OC2 [14-L-Valine-TPL, 14-Levo-Valine-Triptolide]
IC50 [3]: 8.86 nM | IC50 [4]: 5 nM | growth of K562/ADR cells in mice in vivo (in words) ([5]; 14 days): significantly inhibit the growth | Tumor volume ([5]; trifluoroacetate 0.2 mg/kg intragastric 2 times a day, 14 days, individual mice, listed as LV): 73.63 mm^3 and 0 mm^3 and 159.87 mm^3 | Tumor volume ([5]; trifluoroacetate 0.4 mg/kg intragastric 2 times a day, 14 days, individual mice, listed as LV): 30.71 mm^3 and 96.79 mm^3 and 0 mm^3 | Body weight ([2]; K562/ADR-bearing mice, 0.2 mg/kg intragastric 2 times a day, listed as LV, 0.2 mg/kg): 18 g and 22.2 g and 22 g | Body weight ([2]; K562/ADR-bearing mice, 0.4 mg/kg intragastric 2 times a day, listed as LV, 0.4 mg/kg): 21.2 g and 20.8 g and 21.1 g

CC(C)[C@H](N)C(=O)N[C@H](C(=O)O[C@@H]1[C@@]2(C(C)C)O[C@H]2[C@@H]2O[C@]23[C@]12O[C@H]2C[C@H]1C2=C(CC[C@@]13C)C(=O)OC2)C(C)C [14-L-Valine-L-Valine-TPL, 14-Levo-Valine-Levo-Valine-Triptolide]
IC50 [6]: 20 nM | growth of KG-1a in mice in vivo (in words) ([1]; 14 days): significantly inhibit the growth | Tumor volume ([1]; trifluoroacetate 0.23 mg/kg intragastric 2 times a day, 14 days, individual mice, listed as LLV): 804.56 mm^3 and 644.07 mm^3 and 1105.64 mm^3 | Tumor volume ([1]; trifluoroacetate 0.46 mg/kg intragastric 2 times a day, 14 days, individual mice, listed as LLV): 383.11 mm^3 and 356.82 mm^3 and 317.61 mm^3 | Body weight ([2]; KG-1a-bearing mice, 0.23 mg/kg intragastric 2 times a day, listed as LLV, 0.23 mg/kg): 19.4 g and 19.7 g and 20.5 g | Body weight ([2]; KG-1a-bearing mice, 0.46 mg/kg intragastric 2 times a day, listed as LLV, 0.46 mg/kg): 20.0 g and 18.9 g and 18.6 g

CC(C)[C@@H](N)C(=O)N[C@@H](C(=O)O[C@@H]1[C@@]2(C(C)C)O[C@H]2[C@@H]2O[C@]23[C@]12O[C@H]2C[C@H]1C2=C(CC[C@@]13C)C(=O)OC2)C(C)C [14-D-Valine-D-Valine-TPL, 14-Dextro-Valine-Dextro-Valine-Triptolide]
growth of K562/ADR cells in mice in vivo (in words) ([5]; 14 days): significantly inhibit the growth | Tumor volume ([5]; 0.23 mg/kg, Overall): 0 mm^3 | Tumor volume ([5]; 0.46 mg/kg, Overall): 0 mm^3 | Tumor volume ([5]; trifluoroacetate 0.23 mg/kg intragastric 2 times a day, 14 days, individual mice): 0 mm^3 | Tumor volume ([5]; trifluoroacetate 0.46 mg/kg intragastric 2 times a day, 14 days, individual mice): 0 mm^3 | Body weight ([2]; K562/ADR-bearing mice, 0.23 mg/kg intragastric 2 times a day, listed as DDV, 0.23 mg/kg): 19.7 g and 21.2 g and 19.1 g | Body weight ([2]; K562/ADR-bearing mice, 0.46 mg/kg intragastric 2 times a day, listed as DDV, 0.46 mg/kg): 20.5 g and 23.2 g and 19.3 g

CC(C)[C@]12O[C@H]1[C@@H]1O[C@]13[C@]1(O[C@H]1C[C@H]1C4=C(CC[C@@]13C)C(=O)OC4)[C@@H]2OCOP(=O)(O)O [Minnelide]
toxic effect ([7]; at a dosage effective to tumor regression): no significant toxic effect | survival of mice ([7]; nude mouse model of pancreatic cancer): prolonged the survival of mice
